Data set [1] concerns Plasmodium berghei. The experiment in a line: Drug uptake in ring stage of Plasmodium berghei NK65 infected in ICR mice (Mus musculus) RBCs at 10 nM after 20 min using Rhodamine 123 by fluorescence microscopy. The conditions noted are these: in vivo, 0.01 µM. Type of data set: ADME, organism-based.
The subject of data set [2] is Plasmodium berghei. The experiment in a line: Antimalarial activity against Plasmodium berghei NK65 infected in mice (Mus musculus) assessed as increase of mice (Mus musculus) survival days at 40 mg/kg, subcutaneous daily for 3 days measured up to 18 months. Details: dose 40 mg/kg. Type of data set: functional, organism-based.
The subject of data set [3] is Plasmodium berghei. The experiment in a line: Antimalarial activity against Plasmodium berghei NK65 infected in mice (Mus musculus) assessed as reduction of parasitaemia at 40 mg/kg, subcutaneous daily for 3 days. Type of data set: functional. Details: scale not given: the % may be the effect or the level left.
In data set [4] the test system is Plasmodium berghei. The data set can be described thus: Drug uptake in early trophozoite stage of Plasmodium berghei NK65 infected in ICR mice (Mus musculus) RBCs at 10 nM after 20 min using Rhodamine 123 by fluorescence microscopy. The format is ADME, organism-based. The conditions noted are these: in vivo, 0.01 µM.
The nature of data set [5]: Drug uptake in blood stage of Plasmodium berghei NK65 mitochondria infected ICR mice (Mus musculus) RBCs at 0.25 uM after 20 min using Rhodamine 123 by fluorescence microscopy. Type of data set: ADME.
Data set [6] is described as follows: Drug uptake in blood stage of Plasmodium berghei NK65 nucleus infected ICR mice (Mus musculus) RBCs at 0.25 uM after 20 min using Rhodamine 123 by fluorescence microscopy. Type of data set: ADME, tissue-based.
For another data set, the system named is Mus musculus. The data set can be described thus: Drug uptake in Plasmodium berghei NK65 infected ICR mice (Mus musculus) RBCs at 40 mg/kg, subcutaneously qd for 3 days after 23 hrs. Type of data set: ADME, organism-based. Further details: dose 40 mg/kg, route subcutaneous. The conditions noted are these: in vivo, sc.
Data set [7] deals with Plasmodium berghei. The experiment in a line: Drug uptake in late trophozoite stage of Plasmodium berghei NK65 infected in ICR mice (Mus musculus) RBCs at 10 nM after 20 min using Rhodamine 123 by fluorescence microscopy. Type of data set: ADME, organism-based. The conditions noted are these: in vivo, 0.01 µM.
The subject of data set [8] is Plasmodium berghei. The data set can be described thus: Effect on multidrug resistance protein-mediated Rhodamine 123 drug uptake in blood stage of Plasmodium berghei NK65 mitochondria infected ICR mice (Mus musculus) RBCs at 10 nM after 20 min by fluorescence microscopy.
The subject of data set [9] is Plasmodium berghei. The experiment in a line: Drug uptake in schizont stage of Plasmodium berghei NK65 infected in ICR mice (Mus musculus) RBCs at 10 nM after 20 min using Rhodamine 123 by fluorescence microscopy. The format is ADME, organism-based. The conditions noted are these: in vivo, 0.01 µM.
Data set [10] is described as follows: Drug uptake in blood stage of Plasmodium berghei NK65 infected ICR mice (Mus musculus) RBCs at 0.25 uM after 20 min using Rhodamine 123 by fluorescence microscopy. Type of data set: ADME, tissue-based. The conditions noted are these: erythrocyte.
The test system of data set [11] is Plasmodium berghei. The data set can be described thus: Antimalarial activity against Plasmodium berghei NK65 infected in mice (Mus musculus) assessed as reduction of parasitaemia at 40 mg/kg, subcutaneous after 23 hrs (reference value: 8.2 to 25.3 %). The format is functional. Further details: scale not given: the % may be the effect or the level left.
Data set [12] concerns Plasmodium berghei. The experiment in a line: Effect on multidrug resistance protein-mediated Rhodamine 123 drug uptake in blood stage of Plasmodium berghei NK65 mitochondria infected ICR mice (Mus musculus) RBCs at 10 uM after 20 min by fluorescence microscopy.

Active and inactive are the calls of the source. No cut-off for these calls is given here.

Consider `CCn1c(=O)/c(=C/C=c2\nc3c(o2)=CC=CN3C)s/c1=C\c1sc2ccccc2[n+]1C.[Cl-]`, for which the Drug uptake result (in the data set on Plasmodium berghei [1]; in the data set with Plasmodium berghei [4]; in data set [5]; in data set [6]; in the data set with Mus musculus; in the data set with Plasmodium berghei [7]) was “Active” in each case. Besides, the Drug uptake entry (with Plasmodium berghei [9]; in [10]) was “Active” each time. Further, the outcome with Plasmodium berghei [2] was Active. Moreover, the Activity in the data set on Plasmodium berghei [3] was 100%; in the data set on Plasmodium berghei [11], 10.8%. In the data set with Plasmodium berghei [8], the Drug uptake entry was “Active”.

With `CCCCCC[C@H]1C(=O)O[C@H](C)[C@H](NC(=O)c2cccc(NC=O)c2O)C(=O)O[C@@H](C)[C@@H]1OC(=O)CC(C)C`, the Drug uptake entry in the data set on Plasmodium berghei [12] is “inactive”.

Take `N#CC(C#N)=NNc1cccc(Cl)c1`: the Drug uptake result in the data set with Plasmodium berghei [12] was “inactive”.

Values taken from ChEMBL document CHEMBL1287693, “Selective accumulation of a novel antimalarial rhodacyanine derivative, SSJ-127, in an organelle of Plasmodium berghei” (Bioorg Med Chem, 2010).
